Experiment [1] has as its target human recombinant sGC enzyme (Homo sapiens (Human), UniProt Q02108+Q02153). Description: SEC competition binding assay with [3H] Compound B radioligand. The following applies: displacement of 1.6 nM [3H] Compound B, 24 h at 37° C. In short, it runs like this: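 Recombinant human sGC incubated with 1.6 nM [3H] Compound B and test compounds for 24 h at 37° C. Buffer: 50 mM triethanolamine pH 7.4, 3 mM MgCl2, 0.025% BSA, 2 mM DTT, 300 μM DETA/NO, 400 μM GTP, 1% DMSO. Bound ligand separated by gel filtration and counted by scintillation; non-specific binding with 1 μM Compound B; Ki from one-site fit.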

Experiment [2] concerns hypoxia-induced pulmonary hypertension in rat. The experiment in a line: Acute efficacy in hypoxia-induced pulmonary hypertension in rat following intratracheal (IT) administration. The class given is in vivo. The following applies: decrease in SBP at dose giving decrease in PAP ≥15 mmHg. The text has this: Acute Efficacy in Hypoxia-Induced Pulmonary Hypertension in Rat Following Intratracheal (IT) Administration Charles River Sprague-Dawley (CD) male rats weighing approximately 350 g were implanted with HD-S21 dual pressure telemetry transmitters (Data Sciences International (DSI)) into the pulmonary artery and femoral artery. This transmitter enables simultaneous measurement of both pulmonary and systemic hemodynamic parameters in the same animal. After a 7-10 day post-operative recovery period, animals were subjected to a normobaric hypoxic (10% oxygen) environment using a Higher Peak Mountain Air Generator (MAG-10) connected to a modified rodent cage via a fitted inlet port. Oxygen (at 10%), temperature, humidity, and CO2 were controlled within normal range and animals were maintained on a 12 hour light-dark cycle with ad libitum access to food and water. After two weeks exposure to 10% O2 hypoxic environment, systolic pulmonary arterial pressure readings increased from ˜25 mmHg to greater than 50 mmHg. Using a 48 hour baseline average, animals with readings between 50-110 mmHg (standard deviation of less than 10 mmHg) and minimal changes in systolic systemic blood pressure were enrolled for study. Animals were utilized for up to 2 studies per week for 4 weeks with a minimum of 2 days washout between doses of test agent. Compound or vehicle was administered intra-tracheally under light isoflurane anesthesia (5% in oxygen; flow rate 2.0 L/min for 3 minutes). Once anesthetized, rats were placed on an angled intubation stand in supine position and the trachea visualized using a small laryngoscope. Animals then received either 0.5 mL/kg of vehicle or 0.5 mL/kg vehicle containing compound intra-tracheally delivered via microsprayer by use of a Penn-Century Microsprayer® needle 3″ (Model IA-1B-GP) attached to a 1 mL high pressure syringe (Penn Century-Model B—SYR-PL1000) (Penn-Century, Philadelphia, Pa.). The Microsprayer® tip was inserted into the trachea up to the point at which the bend in the needle is close to the tip of the snout, which positions the tip of the Microsprayer® in front of the carina (bifurcation of trachea at the bronchi). After dose delivery the animal is placed on its back in the home cage for recovery. Hemodynamic measurements were continuously recorded and readings consolidated to hourly moving averages. Each animal received a vehicle on Day 1 followed by vehicle or test agent on Day 2. Change from vehicle baseline was calculated by subtracting the hourly Day 1 vehicle response from the hourly Day 2 response and treatment group data was expressed as mean±SEM. Decreases of systolic blood pressure (SBP) and systolic pulmonary arterial pressure (PAP) were measured at a particular IT dose (mpk milligrams per kilogram) for the following Example compounds. Compounds in the Table 13 achieved a minimum decrease in PAP of ≥15 mmHg for the corresponding decrease in SBP listed.

In experiment [3] the target is sGC α1/β1 heterodimer (Homo sapiens (Human), UniProt Q02108+Q02153). The experiment in a line: Cell-based sGC functional assay (CASA assay), cGMP by HTRF. Conditions: CHO-K1/sGC cells; for Emax: CHO-K1, cGMP production as percentage of maximum of compound A (set to 100%), read-out: % Activation; for EC50: inflection point of cGMP production, 4P fit, read-out: IP. In short, it runs like this:
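CHO-K1 cells stably expressing human sGC α1/β1, with 0.5 mM IBMX, pre-incubated ±1 μM DETA-NO 30 min at 25° C, then compound 1 hr at 37° C (2.5% DMSO). cGMP by HTRF; activation as % of reference activator maximum, 4P fit giving inflection point and maximum […].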
Background: In TR-FRET formats the signal depends on donor and acceptor labels being close together.

Molecules are shown by their SMILES.

As for `CC1(c2cccc(O)c2)C(=O)Nc2nc(-c3cn4ccnc4c(Cc4cc(F)ccc4F)n3)nc(N)c21` (centres unmarked) [Example 11-B, 4-Amino-2-{8-[(2,5-difluorophenyl)methyl]imidazo[1,2-a]pyrazin-6-yl}-5-(3-hydroxyphenyl)-5-methyl-5,7-dihydro-6H-pyrrolo[2,3-d]pyrimidin-6-one], in experiment [1], the inhibitory constant (Ki) turned out to be 0.135 nM. For the same compound, in experiment [2] (IT dose 0.01 mpk), the “Category (decrease in SBP)” value was “B (decrease in SBP 5-10 mmHg)”. In addition, in experiment [3], the Emax came out at 137% and the EC50 came to 503 nM.
In the case of `CC1(c2cc(O)c(C(F)(F)F)c(F)c2)C(=O)Nc2nc(-c3cn4ccnc4c(CC4CCCCC4)n3)nc(N)c21` (centres unmarked) [Example 97-B, 4-Amino-2-(8-(cyclohexylmethyl)imidazo[1,2-a]pyrazin-6-yl)-5-(3-fluoro-5-hydroxy-4-(trifluoromethyl)phenyl)-5-methyl-5,7-dihydro-6H-pyrrolo[2,3-d]pyrimidin-6-one], in experiment [1], the Ki came out at 0.587 nM. For the same compound, the “Category (decrease in SBP)” value in experiment [2] (IT dose 0.03 mpk) is recorded as “A (decrease in SBP 0-5 mmHg)”. Also, in experiment [3], the Emax came out at 138% and the EC50 is 1080 nM.
Consider `CC1(c2ccc(Cl)c(O)c2)C(=O)Nc2nc(-c3cn4ccnc4c(Cc4ccccc4F)n3)nc(N)c21` (centres unmarked) [Example 8-A, 4-Amino-5-(4-chloro-3-hydroxyphenyl)-2-{8-[(2-fluorophenyl)methyl]imidazo[1,2-a]pyrazin-6-yl}-5-methyl-5,7-dihydro-6H-pyrrolo[2,3-d]pyrimidin-6-one], for which the Ki in experiment [1] came to 0.117 nM. For the same compound, the “Category (decrease in SBP)” value in experiment [2] (IT dose 0.01 mpk) was “B (decrease in SBP 5-10 mmHg)”. Besides, in experiment [3], the Emax stood at 72% and the EC50 was found to be 316 nM.
As to `CC1(c2ccc(Cl)c(O)c2)C(=O)Nc2nc(-c3cn4ncnc4c(CCC(F)(F)C(F)(F)F)n3)nc(N)c21` (centres unmarked) [Example 88-A, 4-Amino-5-(4-chloro-3-hydroxyphenyl)-5-methyl-2-(8-(3,3,4,4,4-pentafluorobutyl)-[1,2,4]triazolo[1,5-a]pyrazin-6-yl)-5,7-dihydro-6H-pyrrolo[2,3-d]pyrimidin-6-one], the Ki in experiment [1] amounted to 2.5 nM. The “Category (decrease in SBP)” value in experiment [2] (IT dose 0.03 mpk) is on record as “A (decrease in SBP 0-5 mmHg)”. In experiment [3], the Emax came out at 95% and the EC50 was 279 nM.
On to `Cc1ccc(C2(C)C(=O)Nc3nc(-c4cn5ccnc5c(Cc5cccc(F)c5)n4)nc(N)c32)cc1O` (centres unmarked) [Example 107-B, 4-Amino-2-{8-[(3-fluorophenyl)methyl]imidazo[1,2-a]pyrazin-6-yl}-5-(3-hydroxy-4-methylphenyl)-5-methyl-5,7-dihydro-6H-pyrrolo[2,3-d]pyrimidin-6-one], for which the Ki in experiment [1] came out at 0.221 nM. In experiment [2] (IT dose 0.01 mpk), the “Category (decrease in SBP)” value was “A (decrease in SBP 0-5 mmHg)”. For the same compound, in experiment [3], the Emax turned out to be 135% and the EC50 worked out at 198 nM.
In the case of `CC1(c2ccc(F)c(O)c2)C(=O)Nc2nc(-c3cn4ccnc4c(CCC(F)(F)C(F)(F)F)n3)nc(N)c21` (racemic) [Example 115-B, 4-Amino-5-(4-fluoro-3-hydroxyphenyl)-5-methyl-2-(8-(3,3,4,4,4-pentafluorobutyl)-imidazo[1,2-a]pyrazin-6-yl)-5,7-dihydro-6H-pyrrolo[2,3-d]pyrimidin-6-one], the inhibitory constant (Ki) in experiment [1] worked out at 5.03 nM. The “Category (decrease in SBP)” value in experiment [2] (IT dose 0.3 mpk) was “C (decrease in SBP >10 mmHg)”. Besides, in experiment [3], the Emax was 79% and the EC50 came out at 63 nM.
Take `CC1(c2cc(O)c(Cl)cn2)C(=O)Nc2nc(-c3cn4ccnc4c(Cc4ccccc4F)n3)nc(N)c21` (centres unmarked) [Example 4-B, 4-Amino-5-(5-chloro-4-hydroxypyridin-2-yl)-2-{8-[(2-fluorophenyl)methyl]imidazo[1,2-a]pyrazin-6-yl}-5-methyl-5,7-dihydro-6H-pyrrolo[2,3-d]pyrimidin-6-one]: in experiment [1], the Ki worked out at 0.259 nM. In addition, the “Category (decrease in SBP)” value in experiment [2] (IT dose 0.03 mpk) is “A (decrease in SBP 0-5 mmHg)”. Also, in experiment [3], the Emax amounted to 136% and the EC50 was found to be 1920 nM.
For `CC1(c2cc(O)c(Cl)cn2)C(=O)Nc2nc(-c3cn4ccnc4c(Cc4cc(F)ccc4F)n3)nc(N)c21` (centres unmarked) [Example 94-B, 4-Amino-5-(5-chloro-4-hydroxypyridin-2-yl)-2-{8-[(2,5-difluorophenyl)methyl]imidazo[1,2-a]pyrazin-6-yl}-5-methyl-5,7-dihydro-6H-pyrrolo[2,3-d]pyrimidin-6-one], the inhibition constant (Ki) in experiment [1] was 0.149 nM. Besides, the “Category (decrease in SBP)” value in experiment [2] (IT dose 0.03 mpk) was “B (decrease in SBP 5-10 mmHg)”. Besides, in experiment [3], the Emax was determined as 125% and the EC50 worked out at 1260 nM.
Take `CC1(c2ccc(Cl)c(O)c2)C(=O)Nc2nc(-c3cn4ccnc4c(Cc4cccc(F)c4)n3)nc(N)c21` (centres unmarked) [Example 1-A, 4-Amino-5-(4-chloro-3-hydroxyphenyl)-2-{8-[(3-fluorophenyl)methyl]imidazo[1,2-a]pyrazin-6-yl}-5-methyl-5,7-dihydro-6H-pyrrolo[2,3-d]pyrimidin-6-one]: the inhibition constant (Ki) in experiment [1] came out at 0.095 nM. The “Category (decrease in SBP)” value in experiment [2] (IT dose 0.01 mpk) was “A (decrease in SBP 0-5 mmHg)”. In experiment [3], the Emax came out at 118% and the EC50 was 226 nM.
In the case of `CC1(c2cc(O)c(Cl)c(F)c2)C(=O)Nc2nc(-c3cn4ccnc4c(Cc4ccccc4F)n3)nc(N)c21` (centres unmarked) [Example 2-B, 4-Amino-5-(4-chloro-3-fluoro-5-hydroxyphenyl)-2-{8-[(2-fluorophenyl)methyl]imidazo[1,2-a]pyrazin-6-yl}-5-methyl-5,7-dihydro-6H-pyrrolo[2,3-d]pyrimidin-6-one], the Ki in experiment [1] was found to be 0.095 nM. Further, the “Category (decrease in SBP)” value in experiment [2] (IT dose 0.01 mpk) was “A (decrease in SBP 0-5 mmHg)”. In addition, in experiment [3], the Emax turned out to be 89% and the EC50 stood at 1620 nM.
For `CC1(c2ccc(C(F)(F)F)c(O)c2)C(=O)Nc2nc(-c3cn4ccnc4c(Cc4ccccc4F)n3)nc(N)c21` (centres unmarked) [Example 3-B, 4-Amino-2-{8-[(2-fluorophenyl)methyl]imidazo[1,2-a]pyrazin-6-yl}-5-[3-hydroxy-4-(trifluoromethyl)phenyl]-5-methyl-5,7-dihydro-6H-pyrrolo[2,3-d]pyrimidin-6-one], the inhibitory constant (Ki) in experiment [1] came out at 0.219 nM. Moreover, the “Category (decrease in SBP)” value in experiment [2] (IT dose 0.03 mpk) is on record as “A (decrease in SBP 0-5 mmHg)”. Also, in experiment [3], the Emax stood at 98% and the EC50 is 2080 nM.

Broadly, the Ki is a dissociation constant, usually derived from enzyme kinetics or from competition with a known ligand.
